These results are taken from paper PMC11508649 (International Journal of Molecular Sciences, 2024).

Structures can show the parent of a compound that is named as a salt. Where two headings read alike, the source gives them in different places. Marks after values point to notes of the source that are not given here.

Data set [1] addresses T1, human 5-HT1A receptor (Homo sapiens, UniProt P08908).
T1 construct: purchased PerkinElmer; host or cells: CHO-K1
T1 sequence (P08908 1-422): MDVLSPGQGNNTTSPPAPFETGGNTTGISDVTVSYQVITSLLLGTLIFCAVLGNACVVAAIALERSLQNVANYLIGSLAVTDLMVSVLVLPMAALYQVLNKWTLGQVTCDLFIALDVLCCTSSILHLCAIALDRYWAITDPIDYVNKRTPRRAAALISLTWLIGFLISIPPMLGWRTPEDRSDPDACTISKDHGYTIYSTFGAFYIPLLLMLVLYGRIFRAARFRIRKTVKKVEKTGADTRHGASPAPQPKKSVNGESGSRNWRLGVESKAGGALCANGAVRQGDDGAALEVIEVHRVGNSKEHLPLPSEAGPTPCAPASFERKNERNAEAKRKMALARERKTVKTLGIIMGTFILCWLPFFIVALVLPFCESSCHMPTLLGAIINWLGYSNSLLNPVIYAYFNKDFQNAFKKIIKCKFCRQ
In words: 5-HT1A receptor radioligand binding ([3H]-8-OH-DPAT, CHO-K1 membranes). The following applies: displacement of [3H]-8-OH-DPAT, mean ± SEM of three experiments, NC = not converged. How it is done: (§1) Each compound was tested in 6 concentrations from 10–5 to 10–10 M (final concentration).
(§2) All assays were carried out in duplicates.

Data set [2] has as its target T2, human serotonin transporter (Homo sapiens, UniProt P31645).
T2 construct: purchased PerkinElmer; host or cells: HEK-293
In words: Serotonin transporter radioligand binding ([3H]-imipramine, HEK-293 membranes). How it is done:
as §1, §2

For the next data set, the target named is α1-adrenoceptor. In words: ADRA1 receptor binding assay ([3H]-prazosin, rat cortex). The following applies: read-out: Ki ± SEM α1.
The target of data set [3] is human norepinephrine transporter (Homo sapiens, UniProt P23975). Put plainly: NET binding assay ([3H]-nisoxetine, MDCK membranes). The following applies: at 1 µM.
Sequence of human norepinephrine transporter (P23975 whole entry): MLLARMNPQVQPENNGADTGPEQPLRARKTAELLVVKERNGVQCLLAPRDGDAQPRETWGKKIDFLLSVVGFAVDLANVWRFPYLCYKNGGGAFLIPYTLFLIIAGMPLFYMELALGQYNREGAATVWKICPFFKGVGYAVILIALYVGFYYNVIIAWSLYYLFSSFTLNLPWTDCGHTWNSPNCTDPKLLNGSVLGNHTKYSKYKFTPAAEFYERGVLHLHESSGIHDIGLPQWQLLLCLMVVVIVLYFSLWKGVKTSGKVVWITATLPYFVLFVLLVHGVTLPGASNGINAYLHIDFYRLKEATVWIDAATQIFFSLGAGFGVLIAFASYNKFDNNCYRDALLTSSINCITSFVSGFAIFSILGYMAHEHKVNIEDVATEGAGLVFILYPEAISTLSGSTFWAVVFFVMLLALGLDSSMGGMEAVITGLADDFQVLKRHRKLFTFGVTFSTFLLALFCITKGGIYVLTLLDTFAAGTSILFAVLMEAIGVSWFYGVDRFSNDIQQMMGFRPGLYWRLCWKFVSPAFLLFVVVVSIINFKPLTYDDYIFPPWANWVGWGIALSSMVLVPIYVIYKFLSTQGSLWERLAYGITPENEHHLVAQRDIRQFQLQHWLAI
Method: We performed radioligand binding assays using membranes from CHO-K1 cells stably transfected with human DAT and membranes from MDCK cells stably transfected with human NET. This was accomplished by assessing the displacement of [^3H]-WIN35,428 and [^3H]-nisoxetine from cloned human DAT and NET, respectively.
(§3) Ten-micromolar stock solutions of tested compounds were prepared in DMSO. […] Each compound was tested in a screening assay at final concentrations of 10 µM and 1 µM. Results were expressed as percent inhibition of radioligand binding. Reference compounds were tested in 8 concentrations from 10^−5 to 10^−12 M (final concentration).
Radioligand binding was performed using membranes from MDCK cells stably transfected with the human norepinephrine transporter (PerkinElmer, Waltham, MA, USA). All assays were carried out in duplicates. Measures of 50 µL of working solution of the tested compounds, 50 µL of [^3H]-nisoxetine (final concentration 4 nM) and 150 µL of diluted membranes (3 µg protein per well) prepared in assay buffer (50 mM Tris-HCl, pH 7.4, 120 mM NaCl; 5 mM KCl) were transferred to a polypropylene 96-well microplate using the 96-well pipetting station Rainin Liquidator (MettlerToledo, Beverly, MA, USA). […] The microplate was covered with sealing tape, mixed and incubated for 60 min at 4 °C. The reaction was terminated by rapid filtration through GF/C filter mate pre-soaked with 0.5% polyethyleneimine for 30 min. Ten rapid washes with 200 µL of 50 mM Tris buffer (4 °C, pH 7.4) were performed using the automated harvester system Harvester-96 MACH III FM (Tomtec, Hamden, CT, USA). […] Radioactivity was counted using a MicroBeta2 scintillation counter (PerkinElmer, Turku, Finland). Data were fitted to a one-site curve-fitting equation with Prism 5 (GraphPad Software), and Ki values were estimated using the Cheng–Prusoff equation.
In data set [4] the target is human dopamine transporter (Homo sapiens, UniProt Q01959). In words: DAT binding assay ([3H]-WIN 35,428, CHO-K1 membranes). The following applies: for Selectivity Ratio hDAT/hSERT: ratio of Ki values.
Sequence of human dopamine transporter (Q01959 whole entry): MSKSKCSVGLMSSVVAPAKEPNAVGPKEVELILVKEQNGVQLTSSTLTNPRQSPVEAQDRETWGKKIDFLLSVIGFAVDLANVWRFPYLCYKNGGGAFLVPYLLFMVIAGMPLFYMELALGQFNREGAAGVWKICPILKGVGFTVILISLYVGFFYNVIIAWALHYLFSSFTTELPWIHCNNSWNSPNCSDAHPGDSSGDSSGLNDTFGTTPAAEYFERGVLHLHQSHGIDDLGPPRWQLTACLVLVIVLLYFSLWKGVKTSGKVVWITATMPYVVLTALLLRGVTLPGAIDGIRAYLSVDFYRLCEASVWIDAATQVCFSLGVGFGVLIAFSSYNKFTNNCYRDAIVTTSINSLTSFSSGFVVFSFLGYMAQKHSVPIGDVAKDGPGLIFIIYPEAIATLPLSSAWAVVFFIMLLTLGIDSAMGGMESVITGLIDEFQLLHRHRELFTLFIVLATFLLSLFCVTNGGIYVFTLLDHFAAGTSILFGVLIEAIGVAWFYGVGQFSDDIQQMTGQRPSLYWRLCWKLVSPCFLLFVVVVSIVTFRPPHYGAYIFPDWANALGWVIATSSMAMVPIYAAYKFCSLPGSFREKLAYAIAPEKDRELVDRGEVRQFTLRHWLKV
Method: as §3
Radioligand binding was performed using membranes from CHO-K1 cells stably transfected with the human dopamine transporter (PerkinElmer, Waltham, MA, USA). All assays were carried out in duplicates. […] The microplate was covered with sealing tape, mixed and incubated for 120 min at 4 °C. The reaction was terminated by rapid filtration through GF/C filter mate pre-soaked with 0.5% polyethyleneimine for 30 min. Ten rapid washes with 200 µL of 50 mM Tris buffer (4 °C, pH 7.4) were performed using the automated harvester system Harvester-96 MACH III FM (Tomtec, Hamden, CT, USA). […] Radioactivity was counted using a MicroBeta2 scintillation counter (PerkinElmer, Turku, Finland). Data were fitted to a one-site curve-fitting equation with Prism 5 (GraphPad Software), and Ki values were estimated using the Cheng–Prusoff equation.
For data set [5], the target named is T1, human 5-HT1A receptor. The following applies: previously described 1H-indole analogues; read-out: Ki ± SEM 5-HT1A; cited from earlier work.
For data set [6], the target named is T2, human serotonin transporter. The following applies: previously described 1H-indole analogues; read-out: Ki ± SEM SERT; cited from earlier work.
Where [7] appears, read: displacement of [3H]-imipramine, HEK-293 membranes, mean ± SEM of three experiments, read-out: Ki ± SEM SERT.

As usually defined, the melting point is the temperature, or range, at which the solid turns liquid. By Ki is commonly meant a measure of affinity in units of concentration, obtained from inhibition or displacement.

T2 sequence (P31645 whole entry): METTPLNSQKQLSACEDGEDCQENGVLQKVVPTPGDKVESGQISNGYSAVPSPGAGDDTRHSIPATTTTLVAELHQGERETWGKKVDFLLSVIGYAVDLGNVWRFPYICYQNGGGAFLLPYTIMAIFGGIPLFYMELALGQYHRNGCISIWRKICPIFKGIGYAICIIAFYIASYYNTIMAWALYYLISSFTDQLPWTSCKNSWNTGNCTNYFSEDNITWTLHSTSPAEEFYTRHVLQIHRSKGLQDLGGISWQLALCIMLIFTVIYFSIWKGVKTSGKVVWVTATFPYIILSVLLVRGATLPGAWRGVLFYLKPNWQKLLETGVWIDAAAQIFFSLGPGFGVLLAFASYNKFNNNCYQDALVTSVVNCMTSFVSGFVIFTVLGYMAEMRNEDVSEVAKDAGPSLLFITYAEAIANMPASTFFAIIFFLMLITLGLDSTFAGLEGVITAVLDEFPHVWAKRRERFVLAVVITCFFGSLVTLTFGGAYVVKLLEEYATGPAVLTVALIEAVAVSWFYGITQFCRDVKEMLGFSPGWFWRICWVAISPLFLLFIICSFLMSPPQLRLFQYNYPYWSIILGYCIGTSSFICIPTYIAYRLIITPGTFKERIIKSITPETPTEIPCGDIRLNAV

In turn, `O=C1CC(c2c[nH]c3ccccc23)C(=O)N1CCCCN1CC=C(c2c[nH]c3ncccc23)CC1` (stereo not drawn) (as salt: hydrochloride) [Compound 4, 1-(4-(4-(1H-Pyrrolo[2,3-b]pyridin-3-yl)-3,6-dihydropyridin-1(2H)-yl)butyl)-3-(1H-indol-3-yl)pyrrolidine-2,5-dione] showed a melting point of 172 to 177 °C.

As to `O=C1CC(c2c[nH]c3ccccc23)C(=O)N1CCCN1CC=C(c2c[nH]c3ncccc23)CC1` (stereo not drawn) (as salt: hydrochloride) [Compound 5, 1-(3-(4-(1H-Pyrrolo[2,3-b]pyridin-3-yl)-3,6-dihydropyridin-1(2H)-yl)propyl)-3-(1H-indol-3-yl)pyrrolidine-2,5-dione], the melting point was in the range of 97 to 102 °C.

Turning to `O=C1CC(c2c[nH]c3ccccc23)C(=O)N1CCN1CC=C(c2c[nH]c3ncccc23)CC1` (stereo not drawn) (as salt: hydrochloride) [Compound 6, 1-(2-(4-(1H-Pyrrolo[2,3-b]pyridin-3-yl)-3,6-dihydropyridin-1(2H)-yl)ethyl)-3-(1H-indol-3-yl)pyrrolidine-2,5-dione], the melting point fell in the range of 233 to 235 °C.

For `COc1ccc2[nH]cc(C3CC(=O)N(CCCCN4CC=C(c5c[nH]c6ncccc56)CC4)C3=O)c2c1` (stereo not drawn) (as salt: hydrochloride) [Compound 7, 1-(4-(4-(1H-Pyrrolo[2,3-b]pyridin-3-yl)-3,6-dihydropyridin-1(2H)-yl)butyl)-3-(5-methoxy-1H-indol-3-yl)pyrrolidine-2,5-dione], the melting point fell in the range of 140 to 144 °C.

On to `COc1ccc2[nH]cc(C3CC(=O)N(CCCN4CC=C(c5c[nH]c6ncccc56)CC4)C3=O)c2c1` (stereo not drawn) (as salt: hydrochloride) [Compound 8, 1-(3-(4-(1H-Pyrrolo[2,3-b]pyridin-3-yl)-3,6-dihydropyridin-1(2H)-yl)propyl)-3-(5-methoxy-1H-indol-3-yl)pyrrolidine-2,5-dione], for which the melting point was in the range of 111 to 115 °C.

The compound `COc1ccc2[nH]cc(C3CC(=O)N(CCN4CC=C(c5c[nH]c6ncccc56)CC4)C3=O)c2c1` (stereo not drawn) (as salt: hydrochloride) [Compound 9, 1-(2-(4-(1H-Pyrrolo[2,3-b]pyridin-3-yl)-3,6-dihydropyridin-1(2H)-yl)ethyl)-3-(5-methoxy-1H-indol-3-yl)pyrrolidine-2,5-dione] registered a melting point of 129 to 132 °C.

`O=C1CC(c2c[nH]c3ccc(F)cc23)C(=O)N1CCCCN1CC=C(c2c[nH]c3ncccc23)CC1` (stereo not drawn) (as salt: hydrochloride) [Compound 10, 1-(4-(4-(1H-Pyrrolo[2,3-b]pyridin-3-yl)-3,6-dihydropyridin-1(2H)-yl)butyl)-3-(5-fluoro-1H-indol-3-yl)pyrrolidine-2,5-dione]: the melting point fell in the range of 98 to 102 °C.

The compound `O=C1CC(c2c[nH]c3ccc(F)cc23)C(=O)N1CCCN1CC=C(c2c[nH]c3ncccc23)CC1` (stereo not drawn) (as salt: hydrochloride) [Compound 11, 1-(3-(4-(1H-Pyrrolo[2,3-b]pyridin-3-yl)-3,6-dihydropyridin-1(2H)-yl)propyl)-3-(5-fluoro-1H-indol-3-yl)pyrrolidine-2,5-dione] showed a melting point of 147 to 150 °C.

`O=C1CC(c2c[nH]c3ccc(F)cc23)C(=O)N1CCN1CC=C(c2c[nH]c3ncccc23)CC1` (stereo not drawn) (as salt: hydrochloride) [Compound 12, 1-(2-(4-(1H-Pyrrolo[2,3-b]pyridin-3-yl)-3,6-dihydropyridin-1(2H)-yl)ethyl)-3-(5-fluoro-1H-indol-3-yl)pyrrolidine-2,5-dione]: the melting point fell in the range of 250 to 252 °C.

For the compound `O=C1CC(c2c[nH]c3ccccc23)C(=O)N1CCCN1CC=C(c2c[nH]c3ncccc23)CC1` (stereo not drawn) [Compound 5, 1-(3-(4-(1H-Pyrrolo[2,3-b]pyridin-3-yl)-3,6-dihydropyridin-1(2H)-yl)propyl)-3-(1H-indol-3-yl)pyrrolidine-2,5-dione], the Ki at human 5-HT1A receptor [1] was 2.45 ± 0.024 µM; in data set [2], 0.0571 ± 0.0032 µM.

Consider `O=C1CC(c2c[nH]c3ccccc23)C(=O)N1CCN1CC=C(c2c[nH]c3ncccc23)CC1` (stereo not drawn) [Compound 6, 1-(2-(4-(1H-Pyrrolo[2,3-b]pyridin-3-yl)-3,6-dihydropyridin-1(2H)-yl)ethyl)-3-(1H-indol-3-yl)pyrrolidine-2,5-dione], for which the Ki came out at 0.245 ± 0.018 µM in data set [2] (setting [7]), 0.367 ± 0.0552 µM on α1-adrenoceptor and 0.916 ± 0.0405 µM in data set [4]. Moreover, the “hNET screening procedure, displacement %” value in data set [3] is given as 37% ^a. In data set [4], the “Selectivity Ratio hDAT/hSERT” value is on record as 3.7.

Take `COc1ccc2[nH]cc(C3CC(=O)N(CCCCN4CC=C(c5c[nH]c6ncccc56)CC4)C3=O)c2c1` (stereo not drawn) [Compound 7, 1-(4-(4-(1H-Pyrrolo[2,3-b]pyridin-3-yl)-3,6-dihydropyridin-1(2H)-yl)butyl)-3-(5-methoxy-1H-indol-3-yl)pyrrolidine-2,5-dione]: the Ki on human 5-HT1A receptor [1] is 0.824 ± 0.0232 µM; in data set [2] (setting [7]), 0.0584 ± 0.004 µM.

As for `COc1ccc2[nH]cc(C3CC(=O)N(CCN4CC=C(c5c[nH]c6ncccc56)CC4)C3=O)c2c1` (stereo not drawn) [Compound 9, 1-(2-(4-(1H-Pyrrolo[2,3-b]pyridin-3-yl)-3,6-dihydropyridin-1(2H)-yl)ethyl)-3-(5-methoxy-1H-indol-3-yl)pyrrolidine-2,5-dione], the Ki in data set [2] (setting [7]) came to 0.092 ± 0.008 µM; on α1-adrenoceptor, 0.319 ± 0.0102 µM; in data set [4], 0.335 ± 0.0148 µM. For the same compound, the “hNET screening procedure, displacement %” value in data set [3] turned out to be 41% ^a. In data set [4], the “Selectivity Ratio hDAT/hSERT” value worked out at 3.6.

`O=C1CC(c2c[nH]c3ccc(F)cc23)C(=O)N1CCCCN1CC=C(c2c[nH]c3ncccc23)CC1` (stereo not drawn) [Compound 10, 1-(4-(4-(1H-Pyrrolo[2,3-b]pyridin-3-yl)-3,6-dihydropyridin-1(2H)-yl)butyl)-3-(5-fluoro-1H-indol-3-yl)pyrrolidine-2,5-dione]: the Ki worked out at 0.128 ± 0.012 µM at human 5-HT1A receptor [1] and 0.0776 ± 0.0025 µM in data set [2] (setting [7]).

`O=C1CC(c2c[nH]c3ccc(F)cc23)C(=O)N1CCN1CC=C(c2c[nH]c3ncccc23)CC1` (stereo not drawn) [Compound 12, 1-(2-(4-(1H-Pyrrolo[2,3-b]pyridin-3-yl)-3,6-dihydropyridin-1(2H)-yl)ethyl)-3-(5-fluoro-1H-indol-3-yl)pyrrolidine-2,5-dione]: the values for the Ki (in data set [2] (setting [7]); at α1-adrenoceptor; in data set [4]) were 0.252 ± 0.024 µM, 0.456 ± 0.006 µM and 0.229 ± 0.0214 µM, respectively. For the same compound, the “hNET screening procedure, displacement %” value in data set [3] was determined as 42% ^a. Also, the “Selectivity Ratio hDAT/hSERT” value in data set [4] was 0.9.

`O=C1CC(c2c[nH]c3ccccc23)C(=O)N1CCCCN1CC=C(c2c[nH]c3ccccc23)CC1` (stereo not drawn) [Compound 13]: the Ki at human 5-HT1A receptor [5] was 0.0125 ± 0.0017 µM; in data set [6], 0.0113 ± 0.0006 µM.

As to `O=C1CC(c2c[nH]c3ccccc23)C(=O)N1CCCN1CC=C(c2c[nH]c3ccccc23)CC1` (stereo not drawn) [Compound 14], the figures for the Ki (at human 5-HT1A receptor [5]; in data set [6]) were 0.161 ± 0.0175 µM and 0.004 ± 0.0001 µM, respectively.

For the compound `O=C1CC(c2c[nH]c3ccccc23)C(=O)N1CCN1CC=C(c2c[nH]c3ccccc23)CC1` (stereo not drawn) [Compound 15], the values for the Ki (at human 5-HT1A receptor [5]; in data set [6]) were 0.25 ± 0.0068 µM and 0.0338 ± 0.0032 µM, respectively.

In the case of `COc1ccc2[nH]cc(C3CC(=O)N(CCCCN4CC=C(c5c[nH]c6ccccc56)CC4)C3=O)c2c1` (stereo not drawn) [Compound 16], the Ki at human 5-HT1A receptor [5] is 0.0304 ± 0.0018 µM; in data set [6], 0.0026 ± 0.0003 µM.

In the case of `COc1ccc2[nH]cc(C3CC(=O)N(CCCN4CC=C(c5c[nH]c6ccccc56)CC4)C3=O)c2c1` (stereo not drawn) [Compound 17], the Ki at human 5-HT1A receptor [5] is 0.221 ± 0.0115 µM; in data set [6] it was 0.782 ± 0.054 µM.

`COc1ccc2[nH]cc(C3CC(=O)N(CCN4CC=C(c5c[nH]c6ccccc56)CC4)C3=O)c2c1` (stereo not drawn) [Compound 18]: the Ki at human 5-HT1A receptor [5] was 0.348 ± 0.0121 µM; in data set [6] it was 0.0147 ± 0.0015 µM.

For the compound `O=C1CC(c2c[nH]c3ccc(F)cc23)C(=O)N1CCCCN1CC=C(c2c[nH]c3ccccc23)CC1` (stereo not drawn) [Compound 19], the Ki on human 5-HT1A receptor [5] was 0.0482 ± 0.0029 µM; in data set [6], 0.0333 ± 0.0029 µM.

As for `Cc1ccc(N(CC2=NCCN2)c2cccc(O)c2)cc1` [phentolamine, reference compound], the inhibition constant Ki on α1-adrenoceptor is 0.011 ± 0.0007 µM.
